Measurements from patent US10183950B2, “Thienopyrimidine inhibitors of atypical protein kinase C” (Cancer Research Technology Limited, priority 2011, dated 2019).
pIC50: −log10 of the molar value. Like-named read-outs stand apart in the source and are kept apart here.

Biological target: T1, kinase-domain human PKCι (Homo sapiens, UniProt P41743)
T1 construct: Recombinant, kinase-domain human PKCι is expressed and purified in-house; made in house
T1 sequence (P41743 254-522 limits assumed): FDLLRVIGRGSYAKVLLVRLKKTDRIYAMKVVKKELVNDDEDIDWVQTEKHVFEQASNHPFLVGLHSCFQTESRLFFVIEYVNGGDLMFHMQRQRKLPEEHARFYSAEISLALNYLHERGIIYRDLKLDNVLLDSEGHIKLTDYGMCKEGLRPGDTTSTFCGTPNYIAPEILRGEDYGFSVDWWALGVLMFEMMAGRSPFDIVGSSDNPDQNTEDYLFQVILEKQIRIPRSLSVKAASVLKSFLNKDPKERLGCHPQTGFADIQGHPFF
Test: PKCι IC50 IMAP fluorescence polarisation assay, kinase-domain enzyme
Type: biochemical
Conditions: kinase domain PKCi at 2 μM ATP

[1] = read-out: IC50 in IMAP assay against kinase domain PKCi (Activity)
[2] = read-out: IC50 in IMAP assay against kinase domain PKCi

Structure (SMILES) | pIC50 [1] | pIC50 [2]
Cc1c(C(N)=O)sc2nc(-c3ccncc3)nc(NCCN)c12 [compound 39, 4-(2-Amino-ethylamino)-5-methyl-2-pyridin-4-yl-thieno[2,3-d]pyrimidine-6-carboxylic acid amide] | 6.00 to 7.00 | 
Cc1csc2c(OC[C@@H]3CCCN3)nc(-c3ccncc3)nc12 [compound 480, 7-Methyl-2-pyridin-4-yl-4-((S)-1-pyrrolidin-2-ylmethoxy)-thieno[3,2-d]pyrimidine] |  | 4.40 to 5.00
C[C@@H](N)CNc1nc(-c2cn[nH]c2)nc2sc3c(c12)CCCC3 [compound 188, (R)-N*1*-[2-(1H-Pyrazol-4-yl)-5,6,7,8-tetrahydro-benzo[4,5]thieno[2,3-d]pyrimidin-4-yl]-propane-1,2-diamine] | 5.00 to 6.00 | 
N[C@H](COc1nc(-c2ccncc2)nc2sc3c(c12)CCCC3)Cc1cccc2ccccc12 [compound 161, (S)-1-Naphthalen-1-ylmethyl-2-(2-pyridin-4-yl-5,6,7,8-tetrahydro-benzo[4,5]thieno[2,3-d]pyrimidin-4-yloxy)-ethylamine] | 5.00 to 6.00 | 
N[C@H](CNc1nc(-c2ccncc2)nc2sc3c(c12)CCCCC3)Cc1ccccc1 [compound 87, (S)-3-Phenyl-N*1*-(2-pyridin-4-yl-6,7,8,9-tetrahydro-5H-10-thia-1,3-diaza-benzo[a]azulen-4-yl)-propane-1,2-diamine] | 6.00 to 7.00 | 
Cc1sc2nc(-c3ccncc3)nc(NCCN)c2c1C [compound 36, N*1*-(5,6-Dimethyl-2-pyridin-4-yl-thieno[2,3-d]pyrimidin-4-yl)-ethane-1,2-diamine] | 6.00 to 7.00 | 
N[C@@H](COc1nc(-c2ccncc2)nc2sc3c(c12)CCCC3)Cc1ccc2ccccc2c1 [compound 172, (R)-1-Naphthalen-2-ylmethyl-2-(2-pyridin-4-yl-5,6,7,8-tetrahydro-benzo[4,5]thieno[2,3-d]pyrimidin-4-yloxy)-ethylamine] | 4.40 to 5.00 | 
C[C@@H](N)CNc1nc(-c2ccncc2F)nc2sc3c(c12)CCCC3 [compound 100, (R)-N*1*-[2-(3-Fluoro-pyridin-4-yl)-5,6,7,8-tetrahydro-benzo[4,5]thieno[2,3-d]pyrimidin-4-yl]-propane-1,2-diamine] | 5.00 to 6.00 | 
C[C@H](N)CNc1nc(-c2ccncc2)nc2sc3c(c12)CCCC3 [compound 5, (S)-N*1*-(2-Pyridin-4-yl-5,6,7,8-tetrahydro-benzo[4,5]thieno[2,3-d]pyrimidin-4-yl)-propane-1,2-diamine] | > 7.00 | 
c1cc(-c2nc(N[C@H]3CCNC3)c3c4c(sc3n2)CCCC4)ccn1 [compound 20, (2-Pyridin-4-yl-5,6,7,8-tetrahydro-benzo[4,5]thieno[2,3-d]pyrimidin-4-yl)-(S)-pyrrolidin-3-yl-amine] | 5.00 to 6.00 | 
CN(C)CCOc1nc(-c2ccncc2)nc2sc3c(c12)CCCC3 [compound 135, dimethyl-[2-(2-pyridin-4-yl-5,6,7,8-tetrahydro-benzo[4,5]thieno[2,3-d]pyrimidin-4-yloxy)-ethyl]-amine] | 5.00 to 6.00 | 
CCc1c(C)sc2nc(-c3ccncc3)nc(NC[C@@H](C)N)c12 [compound 32, (R)-N*1*-(5-Ethyl-6-methyl-2-pyridin-4-yl-thieno[2,3-d]pyrimidin-4-yl)-propane-1,2-diamine] | 4.40 to 5.00 | 
Cc1csc2c(OC[C@@H](N)Cc3ccccc3)nc(-c3ccncc3)nc12 [compound 481, (S)-1-(7-Methyl-2-pyridin-4-yl-thieno[3,2-d]pyrimidin-4-yloxymethyl)-2-phenyl-ethylamine] |  | 4.40 to 5.00
C[C@@H](N)CNc1nc(-c2ccncc2)nc2sc3c(c12)CCCCC3 [compound 89, (R)-N*1*-(2-Pyridin-4-yl-6,7,8,9-tetrahydro-5H-10-thia-1,3-diaza-benzo[a]azulen-4-yl)-propane-1,2-diamine] | 6.00 to 7.00 | 
C[C@H](N)CNc1nc(-c2ccncc2)nc2cc(C(C)(C)C)sc12 [compound 307, (S)-N*1*-(6-tert-Butyl-2-pyridin-4-yl-thieno[3,2-d]pyrimidin-4-yl)-propane-1,2-diamine] |  | 4.40 to 5.00
NCCOc1nc(-c2ccncc2)nc2sc3c(c12)CCCC3 [compound 136] | 6.00 to 7.00 | 
N[C@H](CCc1ccccc1)COc1nc(-c2ccncc2)nc2sc3c(c12)CCCC3 [compound 167, (R)-3-Phenyl-1-(2-pyridin-4-yl-5,6,7,8-tetrahydro-benzo[4,5]thieno[2,3-d]pyrimidin-4-yloxymethyl)-propylamine] | 4.40 to 5.00 | 
C[C@H](N)CNc1nc(-c2ccncc2)nc2c1sc1ncccc12 [compound 378, (S)-N*1*-(2-Pyridin-4-yl-pyrido[3′,2′:4,5]thieno[3,2-d]pyrimidin-4-yl)-propane-1,2-diamine] |  | 5.00 to 6.00

Structure (SMILES) | pIC50 [1] | pIC50 [2]
c1cc(-c2nc(OC3CNC3)c3c4c(sc3n2)CCCC4)ccn1 [compound 152, 4-(Azetidin-3-yloxy)-2-pyridin-4-yl-5,6,7,8-tetrahydro-benzo[4,5]thieno[2,3-d]pyrimidine] | 5.00 to 6.00 | 
CN(C)CCNc1nc(-c2ccncc2)nc2sc3c(c12)CCCC3 [compound 1, N,N-dimethyl-N′-(2-pyridin-4-yl-5,6,7,8-tetrahydro-benzo[4,5]thieno[2,3-d]pyrimidin-4-yl)-ethane-1,2-diamine] | 5.00 to 6.00 | 
CC(C)[C@@H](N)COc1nc(-c2ccncc2)nc2sc3c(c12)CCCC3 [compound 148, (R)-2-Methyl-1-(2-pyridin-4-yl-5,6,7,8-tetrahydro-benzo[4,5]thieno[2,3-d]pyrimidin-4-yloxymethyl)-propylamine] | 4.40 to 5.00 | 
Clc1ccccc1CN1CCN(c2nc(-c3ccncc3)nc3sc4c(c23)CCCC4)CC1 [compound 123, 4-[4-(2-Chloro-benzyl)-piperazin-1-yl]-2-pyridin-4-yl-5,6,7,8-tetrahydro-benzo[4,5]thieno[2,3-d]pyrimidine] | 4.40 to 5.00 | 
NCCNc1nc(-c2cn[nH]c2)nc2sc3c(c12)CCCC3 [compound 181, N*1*-[2-(1H-Pyrazol-4-yl)-5,6,7,8-tetrahydro-benzo[4,5]thieno[2,3-d]pyrimidin-4-yl]-ethane-1,2-diamine] | 6.00 to 7.00 | 
NCCNc1nc(-c2ccncc2)nc2cc(-c3ccccc3)sc12 [compound 313, N*1*-(6-Phenyl-2-pyridin-4-yl-thieno[3,2-d]pyrimidin-4-yl)-ethane-1,2-diamine] |  | 4.40 to 5.00
CN(CCN)c1nc(-c2ccncc2)nc2c1sc1cccc(Cl)c12 [compound 385, N*1*-(9-Chloro-2-pyridin-4-yl-benzo[4,5]thieno[3,2-d]pyrimidin-4-yl)-N*1*- methyl-ethane-1,2-diamine] |  | 5.00 to 6.00
C[C@H](N)CNc1nc(-c2ccncc2)nc2cc(-c3ccc(C(C)(C)C)cc3)sc12 [compound 359, (S)-N*1*-[6-(4-tert-Butyl-phenyl)-2-pyridin-4-yl-thieno[3,2-d]pyrimidin-4-yl]-propane-1,2-diamine] |  | 4.40 to 5.00
NCCNc1nc(-c2ccncc2)nc2sc3c(c12)CCCCC3 [compound 84, N*1*-(2-pyridin-4-yl-6,7,8,9-tetrahydro-5H-10-thia-1,3-diaza-benzo[a]azulen-4-yl)-ethane-1,2-diamine] | 6.00 to 7.00 | 
N[C@H](COc1nc(-c2ccncc2)nc2sc3c(c12)CCCC3)CC1CCCCC1 [compound 157, (S)-2-Cyclohexyl-1-(2-pyridin-4-yl-5,6,7,8-tetrahydro-benzo[4,5]thieno[2,3-d]pyrimidin-4-yloxymethyl)-ethylamine] | 5.00 to 6.00 | 
CC(C)(C)c1ccc(-c2cc3nc(-c4ccncc4)nc(N4CCCNCC4)c3s2)cc1 [compound 356, 6-(4-tert-butyl-phenyl)-4-[1,4]diazepan-1-yl-2-pyridin-4-yl-thieno[3,2-d]pyrimidine] |  | 4.40 to 5.00
Brc1cccc(CN2CCN(c3nc(-c4ccncc4)nc4sc5c(c34)CCCC5)CC2)c1 [compound 127, 4-[4-(3-Bromo-benzyl)-piperazin-1-yl]-2-pyridin-4-yl-5,6,7,8-tetrahydro-benzo[4,5]thieno[2,3-d]pyrimidine] | 4.40 to 5.00 | 
N[C@H](COc1nc(-c2ccncc2)nc2sc3c(c12)CCCC3)C1CCCCC1 [compound 156, (S)-1-cyclohexyl-2-(2-pyridin-4-yl-5,6,7,8-tetrahydro-benzo[4,5]thieno[2,3-d]pyrimidin-4-yloxy)-ethylamine] | 5.00 to 6.00 | 
C[C@@H](N)CNc1nc(-c2ccncc2)nc2c1sc1ncccc12 [compound 379, (R)-N*1*-(2-Pyridin-4-yl-pyrido[3′,2′:4,5]thieno[3,2-d]pyrimidin-4-yl)-propane-1,2-diamine] |  | 4.40 to 5.00
c1cc(-c2nc(N[C@@H]3CCNC3)c3c4c(sc3n2)CCCC4)ccn1 [compound 19, (2-pyridin-4-yl-5,6,7,8-tetrahydro-benzo[4,5]thieno[2,3-d]pyrimidin-4-yl)-(R)-pyrrolidin-3-yl-amine] | 6.00 to 7.00 | 
CNCCOc1nc(-c2ccncc2)nc2sc3c(c12)CCCC3 [compound 137, Methyl-[2-(2-pyridin-4-yl-5,6,7,8-tetrahydro-benzo[4,5]thieno[2,3-d]pyrimidin-4-yloxy)-ethyl]-amine] | 5.00 to 6.00 | 
N[C@H](COc1nc(-c2ccncc2)nc2sc3c(c12)CCCC3)Cc1c[nH]cn1 [compound 175, (S)-1-(1H-Imidazol-4-ylmethyl)-2-(2-pyridin-4-yl-5,6,7,8-tetrahydro-benzo[4,5]thieno[2,3-d]pyrimidin-4-yloxy)-ethylamine] | 4.40 to 5.00 | 
c1ccc(CCN2CCN(c3nc(-c4ccncc4)nc4sc5c(c34)CCCC5)CC2)cc1 [compound 132, 4-(4-Phenethyl-piperazin-1-yl)-2-pyridin-4-yl-5,6,7,8-tetrahydro-benzo[4,5]thieno[2,3-d]pyrimidine] | 4.40 to 5.00 | 
